From US12552770B2, “Compounds for treating respiratory disease” (TMEM16A Limited, priority 2020, dated 2026)

Target: T1, human TMEM16A (TMEM16Aabc variant) (Homo sapiens, UniProt Q5XXA6, DEL476-501)
T1 sequence (Q5XXA6 with tags, fused parts or gaps isoform Q5XXA6-5 DEL539-564): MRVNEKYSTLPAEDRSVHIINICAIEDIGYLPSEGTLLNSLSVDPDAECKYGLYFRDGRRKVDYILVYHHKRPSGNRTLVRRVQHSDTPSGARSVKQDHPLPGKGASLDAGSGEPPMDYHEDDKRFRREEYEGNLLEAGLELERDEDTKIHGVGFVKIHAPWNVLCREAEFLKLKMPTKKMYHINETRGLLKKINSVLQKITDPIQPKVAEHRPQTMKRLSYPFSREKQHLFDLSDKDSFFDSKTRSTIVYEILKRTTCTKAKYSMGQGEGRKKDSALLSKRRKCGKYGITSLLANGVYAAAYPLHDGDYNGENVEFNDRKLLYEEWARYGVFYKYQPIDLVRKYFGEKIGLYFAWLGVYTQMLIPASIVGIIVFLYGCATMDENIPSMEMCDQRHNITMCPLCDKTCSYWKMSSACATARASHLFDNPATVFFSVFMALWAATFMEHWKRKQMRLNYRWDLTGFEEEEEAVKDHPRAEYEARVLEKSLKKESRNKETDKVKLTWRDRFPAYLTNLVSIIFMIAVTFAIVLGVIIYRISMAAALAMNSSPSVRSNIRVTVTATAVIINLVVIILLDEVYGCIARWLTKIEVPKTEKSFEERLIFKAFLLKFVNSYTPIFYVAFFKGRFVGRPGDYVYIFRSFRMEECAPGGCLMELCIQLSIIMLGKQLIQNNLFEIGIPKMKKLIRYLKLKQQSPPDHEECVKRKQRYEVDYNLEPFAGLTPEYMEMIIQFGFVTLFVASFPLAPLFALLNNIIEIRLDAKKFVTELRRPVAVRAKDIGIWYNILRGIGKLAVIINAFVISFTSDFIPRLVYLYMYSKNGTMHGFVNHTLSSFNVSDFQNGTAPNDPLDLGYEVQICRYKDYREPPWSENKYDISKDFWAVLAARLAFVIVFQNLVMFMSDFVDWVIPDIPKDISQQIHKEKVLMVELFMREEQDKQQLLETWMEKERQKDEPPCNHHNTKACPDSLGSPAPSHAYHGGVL
Test: Automated whole-cell patch clamp (Qpatch) TMEM16A potentiator assay in recombinant cells
Format: cell-based
Conditions: FRT cells stably expressing human TMEM16A, intracellular calcium at EC20; for % Potentiation @ 3.33 μM Avg: 3.33 μM solution of test compound, percentage increase of baseline TMEM16A current, peak current at +70 mV; for EC50: calculated from cumulative concentration response curve, whole-cell patch clamp
Method: Automated Whole-Cell Patch Clamp Assay to Detect TMEM16A Activity in Recombinant Cells
Cell Culture and Preparation
Fisher rat thyroid (FRT) cells stably expressing human TMEM16A (TMEM16Aabc variant; Dr Luis Galietta, Insituto Giannina, Italy) were cultured in T-75 flasks in Hams F-12 media with Coon's modification (Sigma) supplemented with 10% (v/v) foetal bovine serum, penicillin-streptomycin (10,000 U/mL/10000 μg/mL), G-418 (750 μg/mL), L-glutamine (2 mM) and sodium bicarbonate solution (7.5% v/v). At ˜90% confluence cells were harvested for experiments by detachment with a 2:1 (v/v) mixture of Detachin (BMS Biotechnology) and 0.25% (w/v) trypsin-EDTA. Cells were diluted to a density of 3.5-4.5×10^6 cells/mL with media consisting of CHO-S-SFM II (Sigma), 25 mM HEPES (Sigma) and Soy bean trypsin inhibitor (Sigma).
Whole-Cell Patch Clamp Recording
FRT-TMEM16A cells were whole-cell patch clamped using an automated planar patch clamp system (Qpatch, Sophion). Briefly, once high resistance (GOhm) seals were established between the cells and the planar recording array the patch was ruptured using suction pulses to establish the whole-cell recording configuration of the patch clamp technique. The assay employed the following solutions (all reagents Sigma):
Intracellular solution (mM): N-methyl-D-glucamine 130, CaCl2 18.2, MgCl2 1, HEPES 10, EGTA 10, BAPTA 20, Mg-ATP 2, pH 7.25, 325 mOsm with sucrose.
Extracellular solution (mM): N-methyl-D-glucamine 130, CaCl2 2, MgCl2 1, HEPES 10, pH 7.3, 320 mOsm with sucrose.
The intracellular solution buffers intracellular calcium at levels required to give ˜20% activation of the maximal TMEM16A mediated current (EC20 for calcium ions). Cells were voltage clamped at a holding potential of −70 mV and a combined voltage step (to +70 mV)/ramp (−90 my to +90 mV) was applied at 0.05 Hz. After a period of current stabilisation test compounds, solubilised in 100% (v/v) DMSO and subsequently diluted into extracellular solution, were applied to generate a cumulative concentration response curve. Each concentration of test compound was incubated for 5 minutes before addition of the next concentration. After the final concentration was tested a supramaximal concentration of either a known active positive modulator or the TMEM16A inhibitor, CaCCinhA01 (Del La Fuente et al, 2008) was added to define the upper and lower limits of the assay.
Compound activity was quantified by measuring the increase in current upon compound addition and expressing this as a percentage increase of baseline TMEM16A current level. Percentage increases in current were determined for each concentration and the data plotted as a function of concentration using either the Qpatch software or Graphpad Prism v6.05 providing the concentration which gave 50% of its maximal effect (EC50) and maximum efficacy (percentage of baseline increase).
In FIG. 1, IBL equals baseline current, I[#1] equals the peak current during test compound concentration 1 incubation period and so on.
Peak TMEM16A current at +70 mV was plotted as a function of time over the assay period. Baseline current (IBL) was measured after a period of stabilisation. The increase in current for each compound addition was determined by taking the peak current during the incubation period and subtracting the current from the previous recording period and then expressing this as a percentage of the baseline current. For test compound concentration 1 in FIG. 1 this is:
For each additional concentration tested the increase in current was determined by subtracting the current from the previous incubation period and normalising the baseline value—for test concentration 2 in FIG. 1 this is:
The values for each test concentration were plotted as a cumulative function of concentration e.g. for test concentration two this would be the sum of the peak changes measured during concentration one plus concentration two.

With `O=C(CC12CC3CC(CC(C3)C1)C2)Nc1ccc2[nH]c(CC3CCCCC3)nc2c1` [Example 1, 2-(1-Adamantyl)-N-[2-(cyclohexylmethyl)-1H-benzimidazol-5-yl]acetamide] the “% Potentiation @ 3.33 μM Avg” value was 157.3% and the EC50 was 338 nM.
With `O=C(CC12CC3CC(CC(C3)C1)C2)Nc1ccc2[nH]c(CC3CCCCO3)nc2c1` (stereo not shown) [Example 1.1, 2-(1-Adamantyl)-N-[2-(tetrahydropyran-2-ylmethyl)-1H-benzimidazol-5-yl]acetamide] the “% Potentiation @ 3.33 μM Avg” value was 100.5% and the EC50 was 1100 nM.
In the case of `O=C(CC1C2CC3CC(C2)CC1C3)Nc1ccc2[nH]c(Cc3ccccc3)nc2c1` (stereo not shown) [Example 2, 2-(2-Adamantyl)-N-(2-benzyl-1H-benzimidazol-5-yl)acetamide], the “% Potentiation @ 3.33 μM Avg” value is reported as 183.6% and the EC50 is reported as 268 nM.
With `O=C(CC1C2CC3CC(C2)CC1C3)Nc1ccc2[nH]c(CCc3ccccc3)nc2c1` (stereo not shown) [Example 2.1, 2-(2-Adamantyl)-N-[2-(2-phenylethyl)-1H-benzimidazol-5-yl]acetamide] the “% Potentiation @ 3.33 μM Avg” value was 149.1% and the EC50 was 808 nM.
For `COC(c1ccccc1)c1nc2cc(NC(=O)CC3C4CC5CC(C4)CC3C5)ccc2[nH]1` (stereo not shown) [Example 2.2, 2-(2-Adamantyl)-N-[2-[methoxy(phenyl)methyl]-1H-benzimidazol-5-yl]acetamide], the “% Potentiation @ 3.33 μM Avg” value was 194.2% and the EC50 was 651 nM.
With `COc1ccccc1Cc1nc2cc(NC(=O)CC3C4CC5CC(C4)CC3C5)ccc2[nH]1` (stereo not shown) [Example 2.3, 2-(2-Adamantyl)-N-[2-[(2-methoxyphenyl)methyl]-1H-benzimidazol-5-yl]acetamide] the “% Potentiation @ 3.33 μM Avg” value was 211.2% and the EC50 was 263 nM.
In the case of `CN[C@H](c1ccccc1)c1nc2cc(NC(=O)CC3C4CC5CC(C4)CC3C5)ccc2[nH]1` (stereo partly drawn) [Example 3, 2-(2-Adamantyl)-N-[2-[(R)-methylamino(phenyl)methyl]-1H-benzimidazol-5-yl]acetamide], the “% Potentiation @ 3.33 μM Avg” value is reported as 108.2% and the EC50 is reported as 1640 nM.
`O=C(CC12CC3CC(CC(C3)C1)C2)Nc1ccc2[nH]c(Cc3cccnc3Cl)nc2c1` [Example 4, 2-(1-Adamantyl)-N-[2-[(2-chloro-3-pyridyl)methyl]-1H-benzimidazol-5-yl]acetamide] was tested, and the “% Potentiation @ 3.33 μM Avg” value was 187.3% and the EC50 was 732 nM.
With `O=C(CC1C2CC3CC(C2)CC1C3)Nc1ccc2[nH]c(Cc3ccccc3O)nc2c1` (stereo not shown) [Example 5, 2-(2-Adamantyl)-N-[2-[(2-hydroxyphenyl)methyl]-1H-benzimidazol-5-yl]acetamide] the “% Potentiation @ 3.33 μM Avg” value was 156.9% and the EC50 was 79 nM.
`O=C(CC1C2CC3CC(C2)CC1C3)Nc1ccc2[nH]c(Cc3ccc(O)cc3)nc2c1` (stereo not shown) [Example 5.1, 2-(2-Adamantyl)-N-[2-[(4-hydroxyphenyl)methyl]-1H-benzimidazol-5-yl]acetamide] was tested, and the “% Potentiation @ 3.33 μM Avg” value was 165.9% and the EC50 was 596 nM.
For `O=C(CC1C2CC3CC(C2)CC1C3)Nc1ccc2[nH]c(Cc3cc(Cl)ccc3O)nc2c1` (stereo not shown) [Example 5.2, 2-(2-Adamantyl)-N-[2-[(5-chloro-2-hydroxy-phenyl)methyl]-1H-benzimidazol-5-yl]acetamide], the “% Potentiation @ 3.33 μM Avg” value was 204.2% and the EC50 was 254 nM.
In the case of `O=C(CC12CC3CC(CC(C3)C1)C2)Nc1ccc2[nH]c(CNC(=O)OCC(F)(F)F)nc2c1` [Example 6, 2,2,2-Trifluoroethyl N-[[5-[[2-(1-adamantyl)acetyl]amino]-1H-benzimidazol-2-yl]methyl]carbamate], the “% Potentiation @ 3.33 μM Avg” value is reported as 246.3% and the EC50 is reported as 1250 nM.
For `Cc1noc(C)c1-c1cccc(Cc2nc3ccc(NC(=O)CC45CC6CC(CC(C6)C4)C5)cc3[nH]2)c1` [Example 7, 2-(1-Adamantyl)-N-[2-[[3-(3,5-dimethylisoxazol-4-yl)phenyl]methyl]-3H-benzimidazol-5-yl]acetamide], the “% Potentiation @ 3.33 μM Avg” value was 136.5% and the EC50 was 1580 nM.
`CC(C)(C)OC(=O)NCc1nc2cc(NC(=O)CC3C4CC5CC(C4)CC3C5)ccc2[nH]1` (stereo not shown) [Example 8, tert-Butyl N-[[5-[[2-(2-adamantyl)acetyl]amino]-1H-benzimidazol-2-yl]methyl]carbamate] was tested, and the “% Potentiation @ 3.33 μM Avg” value was 129.2% and the EC50 was 282 nM.
